Data from PubChem BioAssay (NCI).
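Five compound concentrations were applied to cells in 96-well plates for 48 hours; endpoints were derived by simple linear interpolation of the resulting dose-response curve. TGI: concentration producing complete growth inhibition.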

Assays:
Assay in all cases: NCI anticancer screen, dose series, 48 h
A498 renal = tested on: A498 renal
SN12C renal = tested on: SN12C renal
UACC-257 melanoma = tested on: UACC-257 melanoma
SK-MEL-28 melanoma = tested on: SK-MEL-28 melanoma
U251 CNS = tested on: U251 CNS
SK-OV-3 ovarian = tested on: SK-OV-3 ovarian
786-0 renal = tested on: 786-0 renal
CCRF-CEM leukemia = tested on: CCRF-CEM leukemia
MDA-MB-231 breast = tested on: MDA-MB-231 breast
NCI-H23 lung = tested on: NCI-H23 lung
OVCAR-4 ovarian = tested on: OVCAR-4 ovarian
HOP-62 NSCLC = tested on: HOP-62 NSCLC
SR leukemia = tested on: SR leukemia
BT-549 breast = tested on: BT-549 breast
DU-145 prostate = tested on: DU-145 prostate
SK-MEL-5 melanoma = tested on: SK-MEL-5 melanoma
NCI-H226 lung = tested on: NCI-H226 lung
HCC-2998 colon = tested on: HCC-2998 colon
MCF7 breast = tested on: MCF7 breast
MDA-MB-435 = tested on: MDA-MB-435

Structure (SMILES): CCOC(=O)CSc1nnc(CSc2nc(-c3ccccc3)c(-c3ccccc3)[nH]2)n1-c1ccccc1
- TGI (A498 renal): 33.2 µM
- TGI (SN12C renal): 34.9 µM
- TGI (UACC-257 melanoma): > 67.4 µM
- TGI (SK-MEL-28 melanoma): > 100 µM
- TGI (U251 CNS): > 100 µM
- TGI (SK-OV-3 ovarian): 43.8 µM
- TGI (786-0 renal): > 62.9 µM
- TGI (CCRF-CEM leukemia): > 100 µM
- TGI (MDA-MB-231 breast): > 100 µM
- TGI (NCI-H23 lung): > 100 µM
- TGI (OVCAR-4 ovarian): 48.3 µM
- TGI (HOP-62 NSCLC): > 100 µM
- TGI (SR leukemia): > 100 µM
- TGI (BT-549 breast): > 100 µM
- TGI (DU-145 prostate): 30.1 µM
- TGI (SK-MEL-5 melanoma): > 100 µM
- TGI (NCI-H226 lung): > 73.6 µM
- TGI (HCC-2998 colon): 37.1 µM
- TGI (MCF7 breast): > 100 µM

Structure (SMILES): CC(C)OP(=O)(OC(C)C)c1ccc2c(c1)OCCOCCOCCOCCO2
- TGI (A498 renal): > 100 µM
- TGI (SN12C renal): > 100 µM
- TGI (UACC-257 melanoma): > 100 µM
- TGI (SK-MEL-28 melanoma): > 100 µM
- TGI (SK-OV-3 ovarian): > 100 µM
- TGI (786-0 renal): > 100 µM
- TGI (CCRF-CEM leukemia): > 100 µM
- TGI (MDA-MB-231 breast): > 100 µM
- TGI (NCI-H23 lung): > 100 µM
- TGI (HOP-62 NSCLC): > 100 µM
- TGI (SR leukemia): > 100 µM
- TGI (BT-549 breast): > 100 µM
- TGI (DU-145 prostate): > 100 µM
- TGI (SK-MEL-5 melanoma): > 100 µM
- TGI (NCI-H226 lung): > 100 µM
- TGI (HCC-2998 colon): > 100 µM
- TGI (MDA-MB-435): > 100 µM
- TGI (MCF7 breast): > 100 µM

Structure (SMILES): CCOP(=O)(Nc1ccccc1P(=O)(OCC)OCC)OCC
- TGI (A498 renal): > 100 µM
- TGI (UACC-257 melanoma): > 100 µM
- TGI (SK-MEL-28 melanoma): > 100 µM
- TGI (U251 CNS): > 100 µM
- TGI (SK-OV-3 ovarian): > 100 µM
- TGI (786-0 renal): > 100 µM
- TGI (MDA-MB-231 breast): > 100 µM
- TGI (NCI-H23 lung): > 100 µM
- TGI (OVCAR-4 ovarian): > 100 µM
- TGI (HOP-62 NSCLC): > 100 µM
- TGI (BT-549 breast): > 100 µM
- TGI (DU-145 prostate): > 100 µM
- TGI (SK-MEL-5 melanoma): > 100 µM
- TGI (HCC-2998 colon): > 100 µM
- TGI (MDA-MB-435): > 100 µM
- TGI (MCF7 breast): > 100 µM

Structure (SMILES): C=CCc1cc(C=C(C#N)C#N)cc(OC)c1O
- TGI (A498 renal): > 100 µM
- TGI (UACC-257 melanoma): > 100 µM
- TGI (SK-MEL-28 melanoma): > 100 µM
- TGI (U251 CNS): > 100 µM
- TGI (SK-OV-3 ovarian): > 100 µM
- TGI (786-0 renal): > 100 µM
- TGI (CCRF-CEM leukemia): > 100 µM
- TGI (MDA-MB-231 breast): > 100 µM
- TGI (NCI-H23 lung): > 100 µM
- TGI (OVCAR-4 ovarian): > 100 µM
- TGI (SR leukemia): > 100 µM
- TGI (BT-549 breast): > 100 µM
- TGI (DU-145 prostate): > 100 µM
- TGI (SK-MEL-5 melanoma): > 100 µM
- TGI (NCI-H226 lung): > 100 µM
- TGI (MDA-MB-435): > 100 µM
- TGI (MCF7 breast): > 100 µM

Structure (SMILES): CSc1cc(Br)ccc1-n1c(C(=O)c2ccccc2)c(SC)n(-c2ccccc2)c1=O
- TGI (SN12C renal): > 100 µM
- TGI (UACC-257 melanoma): > 100 µM
- TGI (SK-MEL-28 melanoma): > 100 µM
- TGI (U251 CNS): > 100 µM
- TGI (SK-OV-3 ovarian): > 100 µM
- TGI (786-0 renal): > 100 µM
- TGI (MDA-MB-231 breast): > 100 µM
- TGI (NCI-H23 lung): > 100 µM
- TGI (OVCAR-4 ovarian): > 100 µM
- TGI (HOP-62 NSCLC): > 100 µM
- TGI (SR leukemia): > 100 µM
- TGI (BT-549 breast): > 100 µM
- TGI (SK-MEL-5 melanoma): > 100 µM
- TGI (NCI-H226 lung): > 100 µM
- TGI (HCC-2998 colon): > 100 µM
- TGI (MCF7 breast): > 100 µM

Structure (SMILES): Cc1nc2c(cc1C(=O)N/N=C/c1ccc([N+](=O)[O-])cc1)c(=O)n(C)c(=O)n2C
- TGI (SN12C renal): > 100 µM
- TGI (UACC-257 melanoma): > 100 µM
- TGI (SK-MEL-28 melanoma): > 100 µM
- TGI (U251 CNS): 57 µM
- TGI (SK-OV-3 ovarian): > 100 µM
- TGI (786-0 renal): > 100 µM
- TGI (CCRF-CEM leukemia): > 100 µM
- TGI (MDA-MB-231 breast): 65.7 µM
- TGI (NCI-H23 lung): > 100 µM
- TGI (OVCAR-4 ovarian): > 100 µM
- TGI (HOP-62 NSCLC): 35.8 µM
- TGI (BT-549 breast): > 100 µM
- TGI (DU-145 prostate): > 100 µM
- TGI (SK-MEL-5 melanoma): > 100 µM
- TGI (NCI-H226 lung): > 100 µM
- TGI (HCC-2998 colon): > 100 µM
- TGI (MDA-MB-435): > 100 µM
- TGI (MCF7 breast): > 100 µM

Structure (SMILES): COc1cccc(CCNc2c(C#N)c3nc4ccccc4n3c3ccccc23)c1
- TGI (A498 renal): > 26.2 µM
- TGI (SN12C renal): > 70 µM
- TGI (UACC-257 melanoma): > 100 µM
- TGI (SK-MEL-28 melanoma): > 100 µM
- TGI (U251 CNS): > 100 µM
- TGI (SK-OV-3 ovarian): > 100 µM
- TGI (786-0 renal): > 75.9 µM
- TGI (CCRF-CEM leukemia): > 100 µM
- TGI (MDA-MB-231 breast): > 100 µM
- TGI (NCI-H23 lung): > 30.5 µM
- TGI (OVCAR-4 ovarian): > 100 µM
- TGI (HOP-62 NSCLC): > 100 µM
- TGI (SR leukemia): > 100 µM
- TGI (BT-549 breast): > 100 µM
- TGI (DU-145 prostate): > 41.1 µM
- TGI (SK-MEL-5 melanoma): 0.872 µM
- TGI (NCI-H226 lung): > 100 µM
- TGI (HCC-2998 colon): > 100 µM
- TGI (MCF7 breast): > 100 µM
